Reference: US8975417B2, “Pyrazolopyrrolidine derivatives and their use in the treatment of disease” (Novartis AG, priority 2013, dated 2015)

What was measured:
His-Brd4(44-477) = His-Brd4(44-477) (Homo sapiens (Human), UniProt O60885); test: TR-FRET in-vitro binding assay for BRD4; conditions: biochemical
Procedure, shortened: (§1)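 Eight-point dilution series tested against in-house His-BRD2(60-472), BRD3(20-477) or BRD4(44-477) (45 nM in dispensed solution) binding acetyl-histone H4 (AcK5,8,12,16; 60 nM in dispensed solution). Incubation 35 min at 30 °C, pH 7.5 HEPES buffer; detection by TR-FRET using Eu-anti-His6 and streptavidin-allophycocyanin.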

His-Brd2(60-472) = His-Brd2(60-472) (Homo sapiens (Human), UniProt P25440); test: TR-FRET in-vitro binding assay for BRD2; conditions: biochemical
Procedure, shortened: as §1

His-Brd3(20-477) = His-Brd3(20-477) (Homo sapiens (Human), UniProt Q15059); test: TR-FRET in-vitro binding assay for BRD3; conditions: biochemical
Procedure, shortened: as §1

MV-4-11 cells = test: Cell growth inhibition assay (CellTiter-Glo), MV-4-11; format: cell-based; conditions: Homo sapiens, MV4-11, read-out: MV-4-11 TGI
Procedure, shortened: (§2)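 CTG luminescence (cellular ATP) after compound treatment; values background- and day 0-corrected, vehicle (0.1% DMSO) = 100%, medium only = −100%. Dose range: 3-fold dilutions from 10 μM. IC50/TGI by 4-parameter fit.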

THP-1 cells = test: Cell growth inhibition assay (CellTiter-Glo), THP-1; format: cell-based; conditions: Homo sapiens, read-out: THP-1 TGI
Procedure, shortened: as §2

K-562 cells = test: Cell growth inhibition assay (CellTiter-Glo), K-562; format: cell-based, human; conditions: Homo sapiens, K562, read-out: K-562 TGI
Procedure, shortened: as §2

[1] = target: nuclear BRD4-NUT foci in HCC2494 NUT midline carcinoma cells (Homo sapiens (Human), UniProt O60885+Q86Y26); test: Nut-foci formation assay; format: cell-based; conditions: 24 hours, read-out: HCS Brd4-NUT IC50
Description: HCC2494 NUT midline carcinoma cells (expressing BRD4-NUT-fusion) were obtained from the University of Texas Southwestern and cultured in RPMI-1640 medium containing 10% Foetal Calf Serum at 37° C. in a humidified 5% CO2 incubator.
Compound-mediated inhibition of BRD4 activity was monitored by quantification of the number and intensity of nuclear BRD4-NUT foci using automated immunofluorescence microscopy. Briefly, 5000 cells in 20 μL fresh medium were seeded into Poly-D-Lysine-precoated 384-well plates and incubated overnight at 37° C. and 5% CO2, followed by addition of 5 μl medium containing compound dilutions at 5-fold their final intended concentration. Dose-response effects were assessed by 3-fold serial dilutions of the test compound, starting at 10 μM. Following incubation of the cells for 24 hours at 37° C. and 5% CO2, the cells were fixed by incubation with 3.7% formaldehyde for 10 min, followed by immunofluorescence staining using rabbit anti-NUT (Cell Signaling Technologies, Cat#3625) as primary, and AlexaFluor488-labeled goat anti-rabbit (Invitrogen, Cat#A11008) as secondary antibody (latter complemented with 1 μg/mL Hoechst33342 as DNA dye). Assay plates were imaged using the appropriate filter sets on the Cellomics VTi automated fluorescence microscopy platform (ThermoFisher Scientific) and the population average of the number of NUT-foci per nucleus is quantified using the Cellomics Spot Detection BioApplication image analysis algorithm (ThermoFisher Scientific). The effect of a particular test compound concentration on NUT-foci number and intensity is expressed as percentage of the value obtained for cells treated with vehicle only (DMSO, 0.1% final concentration), which was set as 100. Compound concentrations leading to half-maximal (IC50) inhibition of the aforementioned readout parameters were determined using standard four parameter curve fitting.

Chain of His-Brd3(20-477) (Q15059 20-477): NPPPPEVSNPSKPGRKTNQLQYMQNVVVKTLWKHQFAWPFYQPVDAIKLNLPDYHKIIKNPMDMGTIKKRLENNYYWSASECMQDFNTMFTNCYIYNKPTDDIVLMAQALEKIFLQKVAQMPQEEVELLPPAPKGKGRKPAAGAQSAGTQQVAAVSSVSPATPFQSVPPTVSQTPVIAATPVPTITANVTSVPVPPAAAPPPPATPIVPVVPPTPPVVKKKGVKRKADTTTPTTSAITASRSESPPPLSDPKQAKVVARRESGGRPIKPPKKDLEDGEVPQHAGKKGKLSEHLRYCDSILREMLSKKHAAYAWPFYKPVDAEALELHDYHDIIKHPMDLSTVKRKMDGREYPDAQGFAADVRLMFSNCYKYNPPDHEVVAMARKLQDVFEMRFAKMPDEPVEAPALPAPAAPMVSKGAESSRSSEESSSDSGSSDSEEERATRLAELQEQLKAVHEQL
Chain of His-Brd2(60-472) (P25440 60-472): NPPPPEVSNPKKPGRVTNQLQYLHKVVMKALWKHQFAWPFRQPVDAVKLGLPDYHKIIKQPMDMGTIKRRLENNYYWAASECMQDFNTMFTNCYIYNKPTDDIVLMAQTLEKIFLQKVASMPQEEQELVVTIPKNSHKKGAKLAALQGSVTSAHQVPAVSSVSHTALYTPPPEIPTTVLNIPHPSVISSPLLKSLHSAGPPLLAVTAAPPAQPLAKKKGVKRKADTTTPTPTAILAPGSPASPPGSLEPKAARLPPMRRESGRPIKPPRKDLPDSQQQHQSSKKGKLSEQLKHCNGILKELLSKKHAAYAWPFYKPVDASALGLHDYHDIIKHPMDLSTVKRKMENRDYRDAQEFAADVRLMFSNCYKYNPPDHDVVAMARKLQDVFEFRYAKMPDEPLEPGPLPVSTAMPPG

| Structure (SMILES) | IC50 (His-Brd4(44-477)) [nM] | IC50 (His-Brd2(60-472)) [nM] | IC50 (His-Brd3(20-477)) [nM] | IC (total growth inhibition) (MV-4-11 cells) [µM] | IC (total growth inhibition) (THP-1 cells) [µM] | IC (total growth inhibition) (K-562 cells) [µM] | IC50 [1] [nM] |
| --- | --- | --- | --- | --- | --- | --- | --- |
| CCc1nn(C(=O)N(C)C)c2c1C(c1ccc(Cl)cc1)N(c1cc(C)c(=O)n(C)c1)C2=O (stereo not drawn) [Example 147, 4-(4-chlorophenyl)-5-(1,5-dimethyl-6-oxo-1,6-dihydropyridin-3-yl)-3-ethyl-N,N-dimethyl-6-oxo-5,6-dihydropyrrolo[3,4-c]pyrazole-1(4H)-carboxamide] | 130 | 140 | 120 | 0.1 | 0.365 | > 10 | 73.1 |
| CNc1cc(N2C(=O)c3c(c(C)nn3C3CC3)[C@H]2c2ccc(Cl)cc2)nn2c(C)nnc12 [Example 161, (R)-4-(4-chlorophenyl)-1-cyclopropyl-3-methyl-5-(3-methyl-8-(methylamino)-[1,2,4]triazolo[4,3-b]pyridazin-6-yl)-4,5-dihydropyrrolo[3,4-c]pyrazol-6(1H)-one] | 21 | 33 | 24 | 0.102 | 0.152 | > 10 | 40.1 |
| Cc1c2c(nn1C1CC1)C(=O)N(c1cc(Cl)c(=O)n(C)c1)[C@@H]2c1ccc(Cl)cc1 [Example 19, (R)-5-(5-chloro-1-methyl-6-oxo-1,6-dihydropyridin-3-yl)-4-(4-chlorophenyl)-2-cyclopropyl-3-methyl-4,5-dihydropyrrolo[3,4-c]pyrazol-6(2H)-one] | 73 | 78 | 65 | 0.043 | 0.125 | > 10 | 118 |
| CNC(=O)n1nc2c(c1C)C(c1ccc(Cl)cc1)N(c1cc(C)c(=O)n(C)c1)C2=O (stereo not drawn) [Example 144, 4-(4-chlorophenyl)-5-(1,5-dimethyl-6-oxo-1,6-dihydropyridin-3-yl)-N,3-dimethyl-6-oxo-5,6-dihydropyrrolo[3,4-c]pyrazole-2(4H)-carboxamide] | 150 | 160 | 140 | 0.107 | 0.361 | > 10 | 134 |
| CNC(=O)n1nc2c(c1C)C(c1ccc(Cl)cc1)N(c1cc(C)c3nnc(C)n3c1)C2=O (stereo not drawn) [Example 146, 4-(4-chlorophenyl)-5-(3,8-dimethyl-[1,2,4]triazolo[4,3-a]pyridin-6-yl)-N,3-dimethyl-6-oxo-5,6-dihydropyrrolo[3,4-c]pyrazole-2(4H)-carboxamide] | 150 | 190 | 200 | 0.0546 | 0.283 | > 10 | 91 |
| Cc1cc(N2C(=O)c3nn(C4CN(C)C4)c(C)c3C2c2ccc(Cl)cc2)cn(C)c1=O (stereo not drawn) [Example 139, 4-(4-chlorophenyl)-5-(1,5-dimethyl-6-oxo-1,6-dihydropyridin-3-yl)-3-methyl-2-(1-methylazetidin-3-yl)-4,5-dihydropyrrolo[3,4-c]pyrazol-6(2H)-one] | 190 | 160 | 120 | 0.107 | 0.399 | > 10 | 366 |
